Results: patent US12521439B2, “Methods and materials for modulating Nrf2 pathway” (The General Hospital Corporation, priority 2019, dated 2026)

Key:
MDA-MB231 cells = experiment: Cell viability (CellTiter-Glo), MDA-MB231; format: cell-based, human; settings: co-treatment MLN4924 (1 μM), three days
Description: (§1) Cell culture: MDA-MB-231 and U87 (U87-MG) cells were obtained from the American Type Culture Collection (ATCC). 293T human embryonic kidney fibroblasts were provided by Dr. Xandra Breakefield (Massachusetts General Hospital). All three cell lines were grown in Dulbecco's modified Eagle medium supplemented with 10% fetal bovine serum (Gemini Bio-products), 100 U penicillin, and 0.1 mg/mL streptomycin (Sigma). All cells were maintained at 37° C. in a humidified 5% CO2 incubator. GSCs were obtained from tumor tissues of GBM patients following surgical resection, under approval from the corresponding Institutional Review Board. These cells have been previously characterized (ref. 37-39) and were maintained in culture as neurospheres in Neurobasal medium (Gibco) supplemented with heparin (2 μg/mL; Sigma) and recombinant EGF (20 ng/mL) and bFGF-2 (10 ng/mL; Peprotech). Human Astrocytes were obtained from ScienCell and cultured in Astrocytes Medium (ScienCell)
(§2) Cell viability: Cells were plated in 96-well plates and treated with the corresponding compounds. Cell viability was measured by adding 25 μl/well of CellTiter-Glo (Promega) followed by 10 minutes incubation and transfer to a white 96-well plate. Bioluminescence was quantified using Synergy HTX multimode reader (Biotek).

U87 glioma cells = experiment: Cell viability (CellTiter-Glo), U87; format: cell-based, human; settings: shKeap1 vs shCtr1, four days
Description: as §1, §2

[1] = tested on: HO1 transcripts in MDA-MB-231 tumors; experiment: HO1 mRNA in fat pad breast tumors in vivo; parameters: species or system mice; settings: 7.5 mg/kg i.p. for four consecutive days
Description: Real-time qRT-PCR: Total RNA isolation from cultured cells was performed using RNeasy kit (Qiagen), followed by reverse transcription with OneScript cDNA synthesis Kit (ABM). mRNA expression of different genes was then analyzed by quantitative PCR using PowerUp SYBR Green Master Mix (Applied Biosystems) and performed using a QuantStudio3 real-time PCR system (Applied Biosystems). Primer sequences for HO1, NQO1, TXNRD2 were obtained from the MGH primer bank and were as follows: HO1 Forward, 5′-[…]-3′ and reverse 5′-[…]-3′; NQO1 Forward 5′-[…]-3′ and reverse 5′-[…]-3′ and Txnrd2 forward 5′-[…]-3 and reverse 5′-[…]. Oligonucleotides were synthesized by the CCIB DNA Core Facility at Massachusetts General Hospital. Expression of human GAPDH was used to mRNA normalization and relative mRNA expression was calculated using the comparative Ct method.
In vivo Tumor Models: Animal experiments performed by our laboratory were approved by the Massachusetts General Hospital Subcommittee on Research Animal Care. Female athymic nude mice (6-8 weeks) were used in all studies with the exception of pharmacokinetics analysis. For brain tumors xenograft model, GBM8 cells (1×10^5 cells/mouse) stably expressing Fluc were stereotactically implanted into the left striatum of animals. […] Tumor volumes were measured using a caliper and calculated according to the following formula: volume=(width)^2×length/2. […]

Keap1 = Keap1 (Homo sapiens, UniProt Q14145); experiment: Differential alkylation mass spectrometry, Keap1; format: binding
Chain of Keap1 (Q14145 whole entry, species assumed): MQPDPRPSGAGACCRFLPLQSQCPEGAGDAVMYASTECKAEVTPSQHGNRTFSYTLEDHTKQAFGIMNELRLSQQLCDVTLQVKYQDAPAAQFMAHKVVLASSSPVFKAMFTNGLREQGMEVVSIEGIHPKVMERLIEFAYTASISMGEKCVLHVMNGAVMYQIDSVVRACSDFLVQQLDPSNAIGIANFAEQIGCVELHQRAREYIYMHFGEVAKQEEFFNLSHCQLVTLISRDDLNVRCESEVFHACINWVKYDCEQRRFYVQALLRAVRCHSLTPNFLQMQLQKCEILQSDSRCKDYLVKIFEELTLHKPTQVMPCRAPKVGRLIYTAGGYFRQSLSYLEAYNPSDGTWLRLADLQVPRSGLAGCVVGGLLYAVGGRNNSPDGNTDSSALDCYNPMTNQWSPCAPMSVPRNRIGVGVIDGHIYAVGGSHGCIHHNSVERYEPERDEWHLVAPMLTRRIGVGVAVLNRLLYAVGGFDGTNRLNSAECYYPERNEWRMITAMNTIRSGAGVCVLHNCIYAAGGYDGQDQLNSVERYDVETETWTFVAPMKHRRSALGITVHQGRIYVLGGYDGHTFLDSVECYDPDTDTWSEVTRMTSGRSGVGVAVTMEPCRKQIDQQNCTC

- reversibility of modification at Cys151 and Cys434 (Keap1; Cys151 BTB domain, Cys434 Kelch domain): partially reversible
Structure (SMILES): COC1=CC(=O)C(O)=C/C1=C/C=C/c1ccccc1 [OBT, (Z)-2-hydroxy-5-methoxy-4-((E)-3-phenylallylidene)cyclohexa-2,5-dien-1-one]
- cell death with neddylation inhibitor MLN4924 (MDA-MB231 cells): protection against cell death
- cell death after silencing of Keap1 (U87 glioma cells): decreased cell death
- upregulation of HO1 transcripts in the tumor [1]: 7 fold
- covalent binding to cysteine sites of Keap1 (Keap1; differential alkylation): bind covalently to all identified cysteine sites
